Results published in paper PMC9967275, “Screening the Pathogen Box to Discover and Characterize New Cruzain and TbrCatL Inhibitors” (Pathogens, 2023).

How the values were obtained:
TbrCatL = molecular target: T1, TbrCatL (Trypanosoma brucei rhodesiense, UniProt Q95PM0); experiment: TbrCatL enzymatic inhibition assay (cleavage of fluorogenic substrate Z-FR-AMC); format: biochemical; conditions: for TbrCatL 0’ Inhibition / TbrCatL 10’ Inhibition: sheet "Screening results"
T1 construct: Conor Caffrey (University of California San Diego)
T1 sequence (Q95PM0 entry or part of it): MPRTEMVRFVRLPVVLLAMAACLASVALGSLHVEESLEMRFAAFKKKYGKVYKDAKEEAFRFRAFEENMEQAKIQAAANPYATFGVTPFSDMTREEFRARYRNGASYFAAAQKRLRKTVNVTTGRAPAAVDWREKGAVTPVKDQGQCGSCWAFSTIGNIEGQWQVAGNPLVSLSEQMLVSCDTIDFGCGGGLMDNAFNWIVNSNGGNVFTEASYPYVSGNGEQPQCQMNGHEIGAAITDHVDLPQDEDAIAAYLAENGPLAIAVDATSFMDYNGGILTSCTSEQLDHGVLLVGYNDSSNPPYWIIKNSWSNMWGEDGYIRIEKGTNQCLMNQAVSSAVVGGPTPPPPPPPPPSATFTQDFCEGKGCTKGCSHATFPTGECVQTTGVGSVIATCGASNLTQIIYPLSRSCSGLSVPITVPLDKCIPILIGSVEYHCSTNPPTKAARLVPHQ
Protocol: (§1) Allison Doak and Prof. Brian Shoichet (University of California San Francisco, San Francisco, CA, USA) and Prof. Conor Caffrey (University of California San Diego, San Diego, CA, USA) generously provided recombinant cruzain and TbrCatL, respectively. In vitro activity of proteases cruzain and TbrCatL was assayed as previously described. Briefly, enzyme activity was measured by monitoring the cleavage of the fluorogenic substrate […] (Z-FR-AMC) at 25 °C. Fluorescence was monitored at 340/440 nm (excitation/emission) over 5–7 min in a Synergy2 Biotek plate reader. […] DMSO and 1 μM E-64 were employed as negative and positive controls, respectively, in all assays. Two conditions were employed for both enzymes: 10′ pre-incubation of the enzyme in the presence of the compound (10′ inc) and no pre-incubation (0′). Reported values correspond to the mean and standard error of the mean (SEM) and all analyses were performed using GraphPad Prism 6.0.
(§2) For the initial screening, compounds were assayed at 5 μM. […] IC50 curves were obtained from a non-linear fit of at least seven distinct compound concentrations, in triplicate. Reported IC50 values are the mean and SEM of two independent measurements.

cruzain = cruzain (Trypanosoma cruzi, UniProt P25779); experiment: biochemical; conditions: for Cruzain 0’ Inhibition / Cruzain 10’ Inhibition: sheet "Screening results"
cruzain, sequence (P25779 123-337 limits assumed): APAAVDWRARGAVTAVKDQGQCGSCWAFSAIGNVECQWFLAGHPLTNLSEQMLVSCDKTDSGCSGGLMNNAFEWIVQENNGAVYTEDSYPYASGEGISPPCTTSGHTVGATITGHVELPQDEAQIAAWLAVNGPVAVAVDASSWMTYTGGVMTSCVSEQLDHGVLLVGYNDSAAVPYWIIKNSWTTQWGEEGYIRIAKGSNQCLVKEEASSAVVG
Protocol: as §1, §2

[1] = 0’ (no pre-incubation), sheet Screening results
[2] = 10’ (pre-incubation), sheet Screening results
[3] = 0’ (pre-incubation time), Pathogen Box screening results
[4] = 10’ (pre-incubation time), Pathogen Box screening results
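Note: at 5 µM compound concentration.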

SMILES	TbrCatL 0’ Inhibition (TbrCatL; 0’ (pre-incubation time))	TbrCatL 10’ Inhibition (TbrCatL; 10’ (pre-incubation time))	Cruzain 0’ Inhibition (cruzain; 0’ (pre-incubation time))	Cruzain 10’ Inhibition (cruzain; 10’ (pre-incubation time))	further results
O=C(NC1CCN(c2ccnc3ccccc23)C1)c1cccc(C(F)(F)F)c1 (stereo not drawn) [MMV023388]	10%	13%	8%	14%	
NS(=O)(=O)c1cccc(-c2ccc3ncc(N4CCOCC4)nc3c2)c1 [MMV023860]	-1.3%	14%	-5.3%	28%	
CC(C)(C)c1cc(C(=O)N2CCN(c3nccnc3C#N)CC2)n(Cc2ccccc2)n1 [MMV023949]	12%	-3%	-0.2%	6%	
O=C(Nc1cccc(-c2ccc(NCCCN3CCCC3)nc2)c1)c1ccccc1 [MMV023953]	12%	7%	8%	11%	
c1cncc(NCc2ccc(-c3cc4ccncc4cc3OC3CCNCC3)s2)c1 [MMV023969]	19%	17%	29%	31%	
COc1ccc(-c2cnc3ccc(N4CCCC4)nn23)cc1OC [MMV023985]	-7%	-1%	-3.2%	-13%	
O=C(Nc1ccccc1)c1ccc(-c2cc3ccncc3cc2OC2CCNCC2)s1 [MMV024035]	-3%	-5%	5%	-6.5%	
NS(=O)(=O)c1cncc(-c2ccc3nccc(-c4cn[nH]c4)c3n2)c1 [MMV024101]	6%	34%	7%	26%	
Cc1ccc(S(=O)(=O)n2cc(-c3ccnc(N)c3)c3cc(Br)cnc32)cc1 [MMV024114]	-5%	1.6%	-9%	15%	
CN(C)CCNC(=O)N1CCCN(c2ncnc3cc(-c4ccccc4)sc23)CC1 [MMV024195]	1.1%	-1.4%	-3.2%	1.9%	
Cc1ccc2[nH]c(C3CCCNC3)c(-c3ccncc3)c2c1 (stereo not drawn) [MMV024311]	-12%	12%	-7.4%	15%	
O=C(NC1CC1)c1ccc(N2CCC(Cc3ccccc3)CC2)nc1 [MMV024397]					TbrCatL Inhibition 0’ (TbrCatL; [1]): 2.6%; TbrCatL Inhibition 10’ (TbrCatL; [2]): 2.6%; Cruzain Inhibition 0’ (cruzain; [1]): 3%; Cruzain Inhibition 10’ (cruzain; [2]): 6%
O=C(Nc1cccc(Cl)c1)c1cnc(N2CCN(c3ccncc3)CC2)c(Cl)c1 [MMV024406]	3%	20%	17%	25%	
CN(C(=O)c1cc2c(-c3cncnc3)cccc2[nH]1)c1ccccc1 [MMV024443]	-4.6%	-3.8%	5%	2.7%	
Cc1cccc(C(=O)Nc2ccnc(N(C)C3CCN(CC(C)C)CC3)c2)c1 [MMV024829]	4%	7%	9%	7%	
O=C(Nc1ccc(N2CCNCC2)nc1)c1oc(-c2ccccc2)nc1C(F)(F)F [MMV024937]	20%	23%	5.6%	14%	
CS(=O)(=O)c1cccc(-c2cnc3[nH]cc(-c4ccc(CCC(=O)O)cc4)c3c2)c1 [MMV026020]					TbrCatL Inhibition 0’ (TbrCatL; [1]): 15%; TbrCatL Inhibition 10’ (TbrCatL; [2]): 20%; Cruzain Inhibition 0’ (cruzain; [1]): 12%; Cruzain Inhibition 10’ (cruzain; [2]): 17%
Nc1nccc2ccc(Oc3ccncc3)cc12 [MMV026313]					TbrCatL Inhibition 0’ (TbrCatL; [3]): 0.4%; TbrCatL Inhibition 10’ (TbrCatL; [4]): 19%; Cruzain Inhibition 0’ (cruzain; [3]): -0.8%; Cruzain Inhibition 10’ (cruzain; [4]): 8%
CCn1ncc2c(NC3CCOCC3)c(CNC(=O)c3ccnn3C)c(C)nc21 [MMV026356]	-6%	-7%	-0.3%	1.1%	
OCc1ccc(-c2cncc(Nc3cccc(Cl)c3)c2)cc1 [MMV026468]	1.7%	2.7%	0%	2.8%	

SMILES	TbrCatL 0’ Inhibition (TbrCatL; 0’ (pre-incubation time))	TbrCatL 10’ Inhibition (TbrCatL; 10’ (pre-incubation time))	Cruzain 0’ Inhibition (cruzain; 0’ (pre-incubation time))	Cruzain 10’ Inhibition (cruzain; 10’ (pre-incubation time))	further results
O=C(NCCc1ccccc1)c1cc(-c2cccnc2)cnc1NCC1CC1 [MMV026490]	0.1%	-13%	-1.3%	-5%	
CC(C)(C)CN1C(=O)C(c2ccccc2)(c2ccccc2)N=C1N [MMV026550]	-5%	0.2%	0%	2.8%	
OCCc1ccc(Nc2nccc(-c3nnc4ccccn34)n2)cc1 [MMV028694]	8%	13%	7%	14%	
CC(C)(CN)c1nc(-c2ccc(Cl)c(O)c2)c(-c2ccnc(N)n2)[nH]1 [MMV030734]	7.5%	-9.5%	5%	-5.6%	
CNC(=O)C1Cc2c([nH]c3cc(Cl)ccc23)C2(CCN(CCc3ccccc3)CC2)N1 (stereo not drawn) [MMV031011]	-11%	-8%	-7.5%	-0.7%	
FC(F)(F)c1cccc(-c2nc3c(NCc4ccncc4)nccc3[nH]2)c1 [MMV032967]	-7%	1.3%	-4.6%	-2.4%	
O=C1COCc2ccc(Br)cc2N1Cc1ccc(C(F)(F)F)cc1 [MMV032995]	-7%	-7%	-5%	0.2%	
c1ccc(Oc2ccc(-c3cc(N4CCOCC4)n[nH]3)cc2)cc1 [MMV045105]	2%	22%	1.3%	29%	
COc1cc(C(F)(F)F)nc2ccc(C)c(N)c12 [MMV047015]	15%	4%	1.1%	5.5%	
N#Cc1ccc(-c2ccc(OCC(N)=O)cc2)cc1 [MMV053220]					TbrCatL Inhibition 0’ (TbrCatL; [1]): -5.7%; TbrCatL Inhibition 10’ (TbrCatL; [2]): -7%; Cruzain Inhibition 0’ (cruzain; [1]): -9%; Cruzain Inhibition 10’ (cruzain; [2]): -5%
CC(=O)N1CCc2cc3nc(C)cc(C)c3cc21 [MMV054312]					TbrCatL Inhibition 0’ (TbrCatL; [1]): 9%; TbrCatL Inhibition 10’ (TbrCatL; [2]): 19%; Cruzain Inhibition 0’ (cruzain; [1]): 10%; Cruzain Inhibition 10’ (cruzain; [2]): 11%
Cc1cc(C)nc(-n2nc(C)cc2Nc2ccccc2)n1 [MMV062221]	-32%	-72%	-21%	-3%	
Cc1nn(Cc2ccccc2)c(Cl)c1C(=O)NC1CCCCCC1 [MMV063404]					TbrCatL Inhibition 0’ (TbrCatL; [1]): 7.6%; TbrCatL Inhibition 10’ (TbrCatL; [2]): 2%; Cruzain Inhibition 0’ (cruzain; [1]): 11%; Cruzain Inhibition 10’ (cruzain; [2]): 7.6%
FC(F)(F)c1nnc2ccc(Cl)nn12 [MMV069458]					TbrCatL Inhibition 0’ (TbrCatL; [1]): 4%; TbrCatL Inhibition 10’ (TbrCatL; [2]): 0%; Cruzain Inhibition 0’ (cruzain; [1]): 2%; Cruzain Inhibition 10’ (cruzain; [2]): -4%
O=C1N(Cc2cc3ccccc3s2)CC2CN(Cc3ccccc3)CCN12 (stereo not drawn) [MMV084603]					TbrCatL Inhibition 0’ (TbrCatL; [1]): 18%; TbrCatL Inhibition 10’ (TbrCatL; [2]): 4.6%; Cruzain Inhibition 0’ (cruzain; [1]): 7.6%; Cruzain Inhibition 10’ (cruzain; [2]): 6.4%
O=C(Nc1cnc2ccccc2c1)c1cccc(-n2cnnn2)c1 [MMV084864]					TbrCatL Inhibition 0’ (TbrCatL; [3]): -11%; TbrCatL Inhibition 10’ (TbrCatL; [4]): 5%; Cruzain Inhibition 0’ (cruzain; [3]): 0%; Cruzain Inhibition 10’ (cruzain; [4]): 11%
COc1cncc(-c2cncc(N3CCN(c4ccncc4)CC3)n2)c1 [MMV085071]	-0.1%	-10%	3.8%	-19%	
O=C(C(Cc1c[nH]c2ccccc12)NS(=O)(=O)c1ccc(Cl)cc1)N1CCCCC1 (stereo not drawn) [MMV085210]					TbrCatL Inhibition 0’ (TbrCatL; [1]): 11%; TbrCatL Inhibition 10’ (TbrCatL; [2]): 8%; Cruzain Inhibition 0’ (cruzain; [1]): 4.5%; Cruzain Inhibition 10’ (cruzain; [2]): 6.5%
CCCNC(=O)N1CCC2(CC1)CC(=O)c1cc(C)ccc1O2 [MMV085230]	8.5%	13%	15%	18%	
